Source: patent publication US20260273081A1, “INHIBITORS OF ETS2-ACTIVATING MOLECULES FOR THE TREATMENT OF INFLAMMATORY DISEASES” (The Francis Crick Institute Limited, priority 2023, published 2026)

Columns and labels:
[1] = tested on: inflammatory macrophages (TPP); experiment: MEK inhibitor (PD-0325901) testing in inflammatory macrophages (TPP), RNA-seq and fGSEA; format: cell-based, human
Experimental: Leukocyte cones from healthy donors were obtained from NHS Blood and Transplant (Cambridge Blood Donor Centre, Colindale Blood Centre, or Tooting Blood Donor Centre). Peripheral blood mononuclear cells (PBMCs) were isolated by density centrifugation (Histopaque 1077, Sigma) and monocytes were positively selected using CD14 Microbeads (Miltenyi Biotec). Macrophage differentiation was performed using conditions that model chronic inflammation (TPP): 3 days GM-CSF (50 ng/ml, Peprotech) followed by 3 days GM-CSF, TNFα (50 ng/ml, Peprotech), PGE2 (1 μg/ml, Sigma Aldrich), and […] (1 μg/ml, Invivogen). […]
RNA was isolated from macrophage lysates (AllPrep DNA/RNA Micro Kit, Qiagen) and sequencing libraries prepared from 10 ng RNA using the SMARTer Stranded Total RNA-Seq Kit v2-Pico Input Mammalian (Takara) following the manufacturer's instructions. Libraries were sequenced on a NextSeq2000 (50 bp, PE reads: CRISPR-based loss-of-function, roxadustat and PD-0325901 experiments) or a NovaSeq6000 (100 bp, PE reads: overexpression experiments). Reads were trimmed using Trim Galore (Phred score 24), filtered to remove reads <20 bp, and ribosomal reads were removed using the BBSplit function of BBMap (BBMap, sourceforge.net/projects/bbmap/) with the Human ribosomal DNA complete repeating unit (GenBank: U13369.1). […]

[2] = tested on: intestinal mucosal biopsies from patients with active IBD; experiment: Human gut explant model: IBD intestinal mucosal biopsies cultured on transwell insert; format: cell-based; conditions: 18 hours culture; for release of IBD-associated inflammatory cytokines from biopsies: PD-0325901 0.5 μM or infliximab 10 µg/ml, vs DMSO, n=10
Experimental: During colonoscopy, intestinal mucosal biopsies (6 per donor) were collected from 10 IBD patients (7 ulcerative colitis, 3 Crohn's disease). All had endoscopically active disease and were not receiving immunosuppressive or biologic therapies. All biopsies were collected from a single inflamed site. All patients provided written informed consent. Ethical approval was provided by the London-Brent Regional Ethics Committee (REC: 21/LO/0682). Biopsies were collected into Opti-MEM and within 1 hour were weighed and placed in pairs onto a transwell insert (ThermoFisher)—designed to create an air-liquid interface70—in a 24-well plate. Each well contained 1 ml media and was supplemented with either DMSO (vehicle control), PD-0325901 (0.5 μM) or infliximab ([…]; MSD). Media: Opti-MEM I (Gibco); GlutaMAX (ThermoFisher): 10% FBS (ThermoFisher), MEM Non-Essential Amino Acids (ThermoFisher); 1% sodium pyruvate (ThermoFisher); 1% penicillin/streptomycin (ThermoFisher); 500 µg/ml gentamicin (Merck). After 18 hours, supernatants and biopsies were snap frozen. Supernatant cytokine concentrations were quantified using LEGENDplex Human Inflammation Panel (Biolegend). RNA was extracted from biopsies and libraries prepared as described earlier (n=9, RNA from one donor was too degraded). Sequencing was performed on a NovaSeq 6000 (100 bp, PE reads). Data were processed as described earlier and GSVA was performed for ETS2-regulated genes and biopsy-derived signatures of IBD-associated inflammation.

ETS2 = experiment: CRISPR-Cas9 editing efficiency at the ETS2 locus in primary monocytes; format: cell-based, human; conditions: Cas9 RNPs nucleofected into primary monocytes; ICE analysis
Experimental: (§1) gRNA sequences were designed using CRISPick (formerly GPP sgRNA Designer) and synthesised by IDT. gRNA sequences: chr21q22 5′ gRNA, […]; chr21q22 3′ gRNA, […]; ETS2 gRNA1, […]; ETS2 gRNA2, […]. Alt-R CRISPR-Cas9 Negative Control crRNA #1 (IDT) was used as a non-targeting control. Cas9-gRNA ribonucleoproteins were assembled as described previously and nucleofected into 5×10^6 monocytes in 100 μL nucleofection buffer (Human Monocyte Nucleofection Kit, Lonza) using a Nucleofector 2b (Lonza, program Y-001). After nucleofection, monocytes were immediately transferred into 5 ml of pre-warmed culture media in a 6-well flat-bottomed plate, and differentiated into macrophages under TPP conditions. Editing efficiency was quantified by PCR amplification of the target region in extracted DNA (chr21q22_Fw primer, […]; chr21q22_Rv, […]; ETS2_g1_Fw, […]; ETS2_g1_Rv, […]; ETS2_g2_Fw, […]; ETS2_g2_Rv, […]). Editing efficiency at the chr21q22 locus was measured via quantification of amplified fragments (2100 Bioanalyzer, Agilent) as previously described. Editing efficiency for individual gRNAs was assessed using the Inference of CRISPR Edits tool (ICE, Synthego).

macrophages = experiment: Viability and myeloid markers of macrophages after nucleofection with Cas9 RNPs and TPP differentiation; format: cell-based, human; conditions: TPP differentiation
Experimental: as §1
Expression of myeloid markers was assessed by flow cytometry (BD LSRFortessaTMX-20). […] Data were analysed using FlowJo v10 (BD Biosciences).

| Molecule | anti-inflammatory activity (relative expression of chr21q22-regulated genes), phenocopying ETS2 disruption or chr21q22 enhancer deletion ([1]; PD-0325901 0.5 μM added day 4, harvested day 6, vs vehicle (DMSO), n=3) | inflammatory pathways (fGSEA, Gene Ontology Biological Pathways) ([1]; PD-0325901 0.5 μM, day 4 to day 6, vs vehicle) | release of IBD-associated inflammatory cytokines from biopsies [2] | expression of ETS2-regulated genes in IBD biopsies (GSVA) ([2]; PD-0325901 0.5 μM, n=9) | validated transcriptional inflammation score (bMIS, GSVA) ([2]; PD-0325901 0.5 μM, n=9) | editing efficiency at the ETS2 locus, mean indel rate (ETS2) [%] | viability of macrophages following nucleofection with Cas9 RNPs and differentiation, mean (macrophages) [%] |
| --- | --- | --- | --- | --- | --- | --- | --- |
| O=C(NOC[C@H](O)CO)c1ccc(F)c(F)c1Nc1ccc(I)cc1F [PD-0325901] | potent anti-inflammatory activity | downregulation of multiple inflammatory pathways | significantly reduced | reduced | significant improvement |  |  |
| gRNA1: ETS2 guide RNA, CAGACACAGAAUUACCCCAA, delivered as Cas9 RNP (delivered as Cas9 ribonucleoprotein complex, further chemistry not given here) |  |  |  |  |  | 89.7 | 98.3 |
| gRNA2: ETS2 guide RNA, UUGCUGCACGGGGUUAACAA, delivered as Cas9 RNP (delivered as Cas9 ribonucleoprotein complex, further chemistry not given here) |  |  |  |  |  | 78.6 | 98.6 |
| infliximab |  |  | comparable levels |  |  |  |  |
